In one data set the test system is PC-3. The data set is described as follows: In vitro anti-proliferative MTT assay. Conditions: Homo sapiens, 72 h. The class given is cell-based. A general note: Formazan colour is commonly taken as a measure of viable cells.
The next data set deals with A549. The data set is described as follows: In vitro anti-proliferative MTT assay. Type of data set: cell-based. The conditions noted are these: Homo sapiens, 72 h.
The subject of a further data set is HeLa. The experiment in a line: In vitro anti-proliferative MTT assay. The conditions noted are these: Homo sapiens, 72 h, read-out: IC50 HeLa.
A further data set concerns MDA-MB-231. The data set is described as follows: In vitro anti-proliferative MTT assay. The conditions noted are these: Homo sapiens, MDA-MB-231, 72 h, read-out: IC50 MDA-MB-231.
In the next data set the test system is KG-1. The experiment in a line: In vitro anti-proliferative MTT assay. The conditions noted are these: Homo sapiens, KG-1, 72 h, read-out: IC50 KG-1.
The next data set deals with HT-29. The data set is described as follows: In vitro anti-proliferative MTT assay. Conditions: Homo sapiens, HT-29, 72 h, read-out: IC50 HT-29.
The test system of another data set is MDA-MB-468. The experiment in a line: In vitro anti-proliferative MTT assay. The conditions noted are these: Homo sapiens, MDA-MB-468, 72 h, read-out: IC50 MDA-MB-468.
A further data set addresses EGFR (T790M) (Homo sapiens, UniProt P00533, T790M). The experiment in a line: In vitro EGFR inhibition, Kinase-Glo Plus luminescence kinase assay. Type of data set: biochemical. The conditions noted are these: for inhibition at 1 µM: 1 μM compound, read-out: EGFR (T790M) Inhibition Rate at 1 μM; for IC50: 10 µM ATP. As for the experimental part:
(§1) The assay was performed using Kinase-Glo Plus luminescence kinase assay kit. All of the enzymatic reactions were conducted at 30 °C for 40 min. The 50 µL reaction mixture in assay buffer contained 10 µM ATP, EGFR kinases, and different concentrations of compounds. Kinase activity was measured by quantitating the amount of ATP remaining in solution following a kinase reaction. The luminescent signal from the assay is correlated with the amount of ATP present and is inversely correlated with the amount of kinase activity. The IC50 values were calculated using nonlinear regression with normalized dose−response fit using Prism GraphPad software (GraphPad Software, San Diego, CA, USA).
On the technique in general: Kinase-Glo measures the ATP left after a reaction by luminescence.

Data set [1] concerns HDAC (HeLa cell nuclear extract, mainly contains HDAC1 and 2). The data set is described as follows: In vitro HDACs inhibition fluorescent assay (HeLa cell nuclear extract). Conditions: read-out: HDAC IC50; HeLa cell nuclear extract as enzyme source.
Protocol: The HDAC inhibitory activities of all the target compounds were evaluated using HeLa cell nuclear extract (mainly contains HDAC1 and 2) as enzyme source.
In brief, 10 μL of HeLa cell nuclear extract was mixed with different concentrations of tested compound (50 μL). […] The inhibition ratios were calculated from the fluorescence intensity readings of tested wells relative to those of control wells, and the IC50 values were calculated using a regression analysis of the concentration/inhibition data.
The target of the next data set is EGFR (WT) (Homo sapiens, UniProt P00533). The experiment in a line: In vitro EGFR inhibition, Kinase-Glo Plus luminescence kinase assay. The class given is biochemical. The conditions noted are these: 10 µM ATP. The protocol: as §1
A further data set has as its target LSD1 (Homo sapiens, UniProt O60341). The data set is described as follows: Amplex red coupled LSD1 inhibition assay. Type of data set: biochemical. Conditions: 10 μM compound. The protocol: Lysine specific demethylase 1 (LSD1, also known as KDM1A) is a kind of epigenetic eraser, which catalyzes the oxidative demethylation of histone 3 methyllysine 4 (H3K4me1) and histone 3 dimethyllysine 4 (H3K4me2). It has been reported that LSD1 is overexpressed in various cancer cells and tissues, and regarded as a potential anticancer target.
Amplex red coupled LSD1 inhibition assay was carried out following reported method. In brief, the compounds were incubated with the recombinant LSD1 and H3K4me2. After that, the fluorescence was measured at excitation wavelength 530 nm and emission wavelength 590 nm in order to evaluate the inhibition rate of the candidate compound.

In data set [2] the test system is thirteen cancer-related kinases. The data set is described as follows: Kinases inhibition assay (Eurofins Cerep, LANCE detection). Type of data set: biochemical, human. Conditions: 100 nM compound, Figure 4. As for the experimental part: Compound 9E was further tested against thirteen cancer-related kinases to characterize its protein kinase selective profile.
The kinase inhibition assays were performed by Eurofins Cerep Corporation in France. In brief, evaluation of the effects of compounds on the activity of the human kinases was quantified by measuring the phosphorylation of the corresponding substrate using human recombinant enzymes and the LANCE detection method.

The next data set deals with T1, BRD4 (BD1) (Homo sapiens, UniProt O60885).
T1 construct: using the recombinant BRD4 (BD1) and its corresponding ligand (BET)
The data set is described as follows: BRD4 inhibition assay (TR-FRET). Type of data set: binding. Conditions: 1 μM compound. As for the experimental part: The assay was performed by TR-FRET technology using the recombinant BRD4 (BD1) and its corresponding ligand (BET). The TR-FRET signal from the assay is correlated with the amount of ligand binding to the bromodomain. All of the binding reactions were conducted at room temperature. The 20 µL reaction mixture in assay buffer contained bromodomains, BET ligand and the indicated amount of inhibitor. For the negative control (blank), 5 µL of the assay buffer was added instead of the BET ligand. The reaction mixture was incubated for 120 min, then TR-FRET signal was measured using Tecan Infinite M1000 plate reader (Tecan, Männedorf, Switzerland).
In general terms: In TR-FRET formats the signal depends on donor and acceptor labels being close together.

Chain of EGFR (T790M) (P00533 25-1210 T790M): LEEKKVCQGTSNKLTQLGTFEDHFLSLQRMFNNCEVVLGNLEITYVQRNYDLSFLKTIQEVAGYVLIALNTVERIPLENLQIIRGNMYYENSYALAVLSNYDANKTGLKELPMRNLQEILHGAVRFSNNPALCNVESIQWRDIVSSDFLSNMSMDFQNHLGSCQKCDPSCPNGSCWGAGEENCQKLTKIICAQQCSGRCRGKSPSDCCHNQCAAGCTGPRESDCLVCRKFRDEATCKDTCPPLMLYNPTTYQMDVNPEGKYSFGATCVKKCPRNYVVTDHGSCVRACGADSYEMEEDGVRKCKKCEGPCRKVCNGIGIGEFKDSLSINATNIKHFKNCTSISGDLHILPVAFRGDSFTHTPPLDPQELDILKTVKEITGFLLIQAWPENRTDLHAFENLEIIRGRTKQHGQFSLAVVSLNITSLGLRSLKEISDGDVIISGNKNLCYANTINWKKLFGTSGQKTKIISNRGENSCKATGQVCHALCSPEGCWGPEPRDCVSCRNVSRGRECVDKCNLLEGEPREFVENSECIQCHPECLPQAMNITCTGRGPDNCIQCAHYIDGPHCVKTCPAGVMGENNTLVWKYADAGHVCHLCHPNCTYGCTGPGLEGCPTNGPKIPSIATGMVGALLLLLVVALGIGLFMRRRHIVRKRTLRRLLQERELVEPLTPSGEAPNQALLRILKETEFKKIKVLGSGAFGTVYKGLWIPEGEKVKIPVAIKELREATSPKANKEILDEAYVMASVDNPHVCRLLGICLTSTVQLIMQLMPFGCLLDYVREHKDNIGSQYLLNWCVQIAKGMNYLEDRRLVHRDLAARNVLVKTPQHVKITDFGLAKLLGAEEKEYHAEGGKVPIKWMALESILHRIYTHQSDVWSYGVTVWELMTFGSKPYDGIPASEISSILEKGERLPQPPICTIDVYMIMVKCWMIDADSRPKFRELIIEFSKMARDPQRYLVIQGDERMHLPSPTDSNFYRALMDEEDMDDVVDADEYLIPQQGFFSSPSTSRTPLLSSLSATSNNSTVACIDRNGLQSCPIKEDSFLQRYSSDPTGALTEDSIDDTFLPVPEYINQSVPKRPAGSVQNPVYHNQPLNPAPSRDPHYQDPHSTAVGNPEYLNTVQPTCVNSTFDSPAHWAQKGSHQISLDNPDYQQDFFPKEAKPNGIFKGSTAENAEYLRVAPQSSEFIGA
Chain of EGFR (WT) (P00533 25-1210): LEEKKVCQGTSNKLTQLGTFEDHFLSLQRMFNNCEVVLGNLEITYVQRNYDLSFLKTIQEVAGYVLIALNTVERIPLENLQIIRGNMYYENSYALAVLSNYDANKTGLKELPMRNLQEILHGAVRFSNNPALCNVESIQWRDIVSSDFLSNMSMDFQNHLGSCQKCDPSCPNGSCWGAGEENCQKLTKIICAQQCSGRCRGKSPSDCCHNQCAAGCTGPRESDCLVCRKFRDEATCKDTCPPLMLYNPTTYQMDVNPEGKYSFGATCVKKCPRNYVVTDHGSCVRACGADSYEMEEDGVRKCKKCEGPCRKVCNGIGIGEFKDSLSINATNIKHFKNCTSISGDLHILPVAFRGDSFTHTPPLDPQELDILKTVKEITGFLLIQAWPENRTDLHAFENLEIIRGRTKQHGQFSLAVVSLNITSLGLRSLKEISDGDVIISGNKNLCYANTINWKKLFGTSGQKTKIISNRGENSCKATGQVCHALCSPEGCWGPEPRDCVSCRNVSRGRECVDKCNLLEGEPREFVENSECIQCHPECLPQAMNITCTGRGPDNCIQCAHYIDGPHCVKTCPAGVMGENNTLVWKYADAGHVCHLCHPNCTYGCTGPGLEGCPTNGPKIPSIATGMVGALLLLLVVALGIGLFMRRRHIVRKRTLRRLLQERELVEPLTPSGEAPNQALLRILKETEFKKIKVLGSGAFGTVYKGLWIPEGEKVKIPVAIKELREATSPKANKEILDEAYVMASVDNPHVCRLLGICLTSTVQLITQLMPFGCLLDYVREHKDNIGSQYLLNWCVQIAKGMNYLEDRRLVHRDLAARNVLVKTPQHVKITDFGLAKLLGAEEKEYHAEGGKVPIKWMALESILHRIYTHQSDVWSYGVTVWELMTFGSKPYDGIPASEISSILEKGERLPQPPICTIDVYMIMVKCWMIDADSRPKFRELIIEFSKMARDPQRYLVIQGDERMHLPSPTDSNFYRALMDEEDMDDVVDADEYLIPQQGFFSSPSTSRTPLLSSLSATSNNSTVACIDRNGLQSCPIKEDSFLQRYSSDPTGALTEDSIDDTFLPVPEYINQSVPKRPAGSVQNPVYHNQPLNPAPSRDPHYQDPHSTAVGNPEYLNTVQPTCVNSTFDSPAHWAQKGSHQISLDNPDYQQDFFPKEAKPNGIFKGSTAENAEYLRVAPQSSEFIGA
Protocol for HT-29: (§2) Cell proliferation assay was determined by the MTT (3-[4,5-dimethyl-2-thiazolyl]-2,5-diphenyl-2H-tetrazolium bromide) method. Briefly, cells were passaged the day before dosing into a 96-well plate, allowed to grow for 12 h, and then treated with different concentrations of compound for 72 h. A 0.5% MTT solution was added to each well. After incubation for another 4 h, formazan formed from MTT was extracted by adding 200 μL of DMSO. Absorbance was then determined using a microplate reader at 570 nm.
Protocol for KG-1: as §2
Protocol for MDA-MB-231: as §2
Protocol for MDA-MB-468: as §2

Consider `C=CC(=O)Nc1cc(Nc2nccc(-c3cn(C)c4ccccc34)n2)c(OC)cc1N(C)CCN(C)C` [AZD9291, osimertinib], for which the IC50 (in general, the concentration needed to halve the response being measured) with PC-3 came to 1230 nM; in the data set on A549, 1970 nM; with HeLa, 3270 nM; in the data set with MDA-MB-231, 3540 nM; in the data set with KG-1, 530 nM; with HT-29 it was 870 nM. For the same molecule, in the data set on MDA-MB-468, the IC50 is 1300 nM.
On to `Cn1cc(-c2ccnc(Nc3ccc(C(=O)NCCC(=O)NO)cc3)n2)c2ccccc21` [Compound 5A, N-(3-(hydroxyamino)-3-oxopropyl)-4-((4-(1-methyl-1H-indol-3-yl)pyrimidin-2-yl)amino) benzamide], for which the melting point (commonly the temperature, or range, at which the solid turns liquid) fell in the range of 164 to 167 °C. At EGFR (T790M), the inhibition (as a rule, the change of the read-out against control, counted positive when it falls) at 1 µM turned out to be 36%.
Molecule `Cn1cc(-c2ccnc(Nc3ccc(C(=O)NCCCC(=O)NO)cc3)n2)c2ccccc21` [Compound 5B, N-(4-(hydroxyamino)-4-oxobutyl)-4-((4-(1-methyl-1H-indol-3-yl)pyrimidin-2-yl)amino) benzamide] registered a melting point of 165 to 168 °C. The inhibition at 1 µM on EGFR (T790M) is 34%.
For the molecule `Cn1cc(-c2ccnc(Nc3ccc(C(=O)NCCCCC(=O)NO)cc3)n2)c2ccccc21` [Compound 5C, N-(5-(hydroxyamino)-5-oxopentyl)-4-((4-(1-methyl-1H-indol-3-yl)pyrimidin-2-yl)amino) benzamide], the melting point was in the range of 144 to 147 °C. Also, the inhibition at 1 µM at EGFR (T790M) stood at 42%. In [1], the IC50 came out at 462 nM.
With `Cn1cc(-c2ccnc(Nc3ccc(C(=O)NCCCCCC(=O)NO)cc3)n2)c2ccccc21` [Compound 5D, N-(6-(hydroxyamino)-6-oxohexyl)-4-((4-(1-methyl-1H-indol-3-yl)pyrimidin-2-yl)amino) benzamide], the melting point lay in the range of 168 to 170 °C. This molecule had an IC50 in the data set on A549 of 3560 nM. Besides, the inhibition at 1 µM at EGFR (T790M) turned out to be 35%. Also, the IC50 in the data set on HeLa came out at 4060 nM. The IC50 in the data set on MDA-MB-231 is 1160 nM. Besides, in the data set on KG-1, the IC50 is 1470 nM. The IC50 in data set [1] was determined as 23 nM. Besides, in the data set with HT-29, the IC50 was 2940 nM. Besides, the IC50 in the data set on MDA-MB-468 stood at 660 nM.
For the molecule `Cn1cc(-c2ccnc(Nc3ccc(C(=O)NCCCCCCC(=O)NO)cc3)n2)c2ccccc21` [Compound 5E, N-(7-(hydroxyamino)-7-oxoheptyl)-4-((4-(1-methyl-1H-indol-3-yl)pyrimidin-2-yl)amino) benzamide], the melting point fell in the range of 161 to 163 °C. For the same molecule, in the data set with PC-3, the half-maximal inhibitory concentration (IC50) worked out at 2250 nM. The same molecule registered an IC50 in the data set with A549 of 2400 nM. At EGFR (T790M), the inhibition at 1 µM was found to be 44% and the half-inhibitory concentration (IC50) came out at 1200 nM. Further, the IC50 on EGFR (WT) amounted to 3200 nM. Also, the IC50 in the data set with HeLa came to 2790 nM. The 50% inhibitory concentration (IC50) in the data set with MDA-MB-231 amounted to 660 nM. In addition, the IC50 in the data set on KG-1 was 520 nM. Besides, the IC50 in data set [1] is 105 nM. The IC50 with HT-29 worked out at 1990 nM. The 50% inhibitory concentration (IC50) in the data set with MDA-MB-468 was found to be 330 nM.
For the molecule `COc1cc(NC(=O)CCC(=O)NO)ccc1Nc1nccc(-c2cn(C)c3ccccc23)n1` [Compound 9A, N^1-hydroxy-N^4-(3-methoxy-4-((4-(1-methyl-1H-indol-3-yl)pyrimidin-2-yl)amino)phenyl) succinimide], the melting point was in the range of 151 to 153 °C. For the same molecule, at EGFR (T790M), the inhibition at 1 µM stood at 38%.
The matching figures for `COc1cc(NC(=O)CCCC(=O)NO)ccc1Nc1nccc(-c2cn(C)c3ccccc23)n1` [Compound 9B, N^1-hydroxy-N^5-(3-methoxy-4-((4-(1-methyl-1H-indol-3-yl)pyrimidin-2-yl)amino)phenyl) glutaramide]: 146 to 148 °C and 37%.
As for `COc1cc(NC(=O)CCCCC(=O)NO)ccc1Nc1nccc(-c2cn(C)c3ccccc23)n1` [Compound 9C, N^1-hydroxy-N^6-(3-methoxy-4-((4-(1-methyl-1H-indol-3-yl)pyrimidin-2-yl)amino)phenyl) adipamide], the melting point is 118 to 120 °C. Further, at EGFR (T790M), the inhibition at 1 µM was 12%. Further, in [1], the concentration for half-maximal inhibition (IC50) amounted to 397 nM.
For the molecule `COc1cc(NC(=O)CCCCCC(=O)NO)ccc1Nc1nccc(-c2cn(C)c3ccccc23)n1` [Compound 9D, N^1-hydroxy-N^7-(3-methoxy-4-((4-(1-methyl-1H-indol-3-yl)pyrimidin-2-yl)amino)phenyl) heptanediamide], the IC50 worked out at 5450 nM with PC-3; 5110 nM in the data set on A549; 5640 nM with HeLa; 3690 nM in the data set on MDA-MB-231; 3620 nM in the data set on KG-1; 121 nM in data set [1]. Further, the IC50 in the data set with HT-29 was 4130 nM; with MDA-MB-468, 1070 nM. Moreover, the inhibition at 1 µM at EGFR (T790M) stood at 13%.
`COc1cc(NC(=O)CCCCCCC(=O)NO)ccc1Nc1nccc(-c2cn(C)c3ccccc23)n1` [Compound 9E, N^1-hydroxy-N^8-(3-methoxy-4-((4-(1-methyl-1H-indol-3-yl)pyrimidin-2-yl)amino)phenyl) octanediamide]: the IC50 with PC-3 turned out to be 3390 nM; in the data set with A549, 2190 nM; at EGFR (T790M), 5000 nM; at EGFR (WT), 5700 nM; in the data set with HeLa, 1850 nM; in the data set with MDA-MB-231 it was 600 nM. In addition, the IC50 with KG-1 was found to be 240 nM; in data set [1], 85 nM; in the data set with HT-29 it was 790 nM; in the data set with MDA-MB-468 it was 230 nM. The figures for the inhibition at 1 µM on EGFR (T790M) and on BRD4 (BD1) (read-out: BRD4 Inhibition Rate at 1 μM) were 15% and 0%, respectively. The “LSD1 Inhibition Rate at 10 μM” value at LSD1 was “no significant inhibition”. At LSD1 (read-out: LSD1 Inhibition Rate at 10 μM), the inhibition at 10 µM worked out at 13%. Besides, in [2], the “Inhibition of 13 protein kinases at 100 nM” value was “no significant inhibition”. At BRD4 (BD1), the “BRD4 Inhibition Rate at 1 μM” value was “not active”.
Molecule `Cn1cc(-c2ccnc(Nc3ccc(C(=O)NO)cc3)n2)c2ccccc21` [Compound 10A, N-hydroxy-4-((4-(1-methyl-1H-indol-3-yl)pyrimidin-2-yl)amino) benzamide] showed a melting point of 108 to 111 °C. Also, the inhibition at 1 µM at EGFR (T790M) amounted to 41%.
For the molecule `Cn1cc(-c2ccnc(Nc3ccc(C(=O)Nc4ccccc4N)cc3)n2)c2ccccc21` [Compound 10B, N-(2-aminophenyl)-4-((4-(1-methyl-1H-indol-3-yl)pyrimidin-2-yl)amino) benzamide], the melting point was 164 to 168 °C. Further, the inhibition at 1 µM at EGFR (T790M) came out at 40%.
The molecule `O=C(CCCCCCC(=O)Nc1ccccc1)NO` [SAHA, suberoylanilide hydroxamic acid, reference compound] showed an IC50 in the data set on A549 of 2130 nM.

For the origin of these results see article PMC6651501, “Design, Synthesis and Biological Evaluation of Novel Osimertinib-Based HDAC and EGFR Dual Inhibitors” (Molecules, 2019).
